Experimental findings from US12612412B2, “Antiviral heterocyclic compounds” (Enanta Pharmaceuticals, Inc., priority 2021, dated 2026) are described below.

Some results are limits rather than exact numbers.

The first assay relates to genotype A, "Long" strain RSV. Nature of the assay: RSV-A assay (CPE protection in Hep-2 cells, ATPlite readout). In kind it is cell-based, Human respiratory syncytial virus (HRSV). To be noted: human respiratory syncytial virus, RSV-A Long strain, MOI 0.1, CPE protection, read-out: Human RSV-A (“Long”) EC50. In a few lines:
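Protection from RSV-induced cytopathic effect measured by ATP content (ATPlite) after 5-day culture. Infection used genotype A Long virus at MOI 0.1 on 8,000 Hep-2 cells per well, with compound serially diluted 2-fold; values are EC50.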
As for `COc1cc(C(=O)NC[C@@](O)(c2cc3c(c(-c4ccc(F)cc4F)n2)OC[C@]3(C)C(N)=O)C(F)(F)F)cc2cn(C3CC3)nc12` [Example 900], the EC50 is less than 200 nM.

Consider `COc1cc(C(=O)NC[C@](O)(c2cc3c(c(-c4ccc(F)cc4)n2)OC[C@]3(C)C(N)=O)C(F)(F)F)cn2nc(C3CC3)cc12` [Example 879], for which the EC50 is more than 200 nM.

In the case of `[2H]C([2H])([2H])c1nc2c(OC)cc(C(=O)NC[C@](O)(c3cc4c(c(-c5cc(Br)c(F)cc5F)n3)OC[C@]4(C)C(N)=O)C3CC3)cc2cc1Cl` [Example 1272], the EC50 is less than 200 nM. Same read-out and setting: to `COc1cc(C(=O)NC[C@](O)(c2cc3c(c(-c4cc(Cl)cc(F)c4F)n2)OC[C@]3(C)C(N)=O)C(F)(F)F)cc2cn(C3CC3)nc12` [Example 1243] belongs less than 200 nM.

The same assay, now with this note: human respiratory syncytial virus, genotype A “Long” strain RSV, MOI 0.1, CPE protection, read-out: Human RSV-A (“Long”).
For `Cc1ccn2c(C(=O)NC[C@](O)(c3cc4c(c(-c5ccc(F)cc5)n3)OC[C@]4(C)C(N)=O)C(F)(F)F)c(C)nc2c1` [Example 361], the EC50 was more than 200 nM. Turning to `C[C@]1(C(N)=O)COc2c1cc([C@@](O)(CNC(=O)c1ccc3ccsc3c1)C(F)(F)F)nc2-c1ccc(F)cc1` [Example 346], the EC50 was more than 200 nM. On the same count and under the same terms, then `C[C@]1(C(N)=O)COc2c1cc([C@@](O)(CNC(=O)c1cn3cc(OC4CC4)ccc3n1)C(F)(F)F)nc2-c1ccc(F)cc1` [Example 813], with more than 200 nM; and `NC(=O)[C@]1(CF)COc2c1cc([C@@](O)(CNC(=O)c1cc(F)c3nc(N)sc3c1)C(F)(F)F)nc2-c1ccc(F)cc1` [Example 289], with more than 200 nM.

Take `CC(C)(O)CNC(=O)[C@@]1(C)COc2c1cc([C@@](O)(CNC(=O)c1ccc3c(c1)CN(C1CC1)C3=O)C(F)(F)F)nc2-c1ccc(F)cc1` [Example 35]: the EC50 was less than 200 nM.

Take `COc1ncccc1C(=O)NC[C@](O)(c1cc2c(c(-c3ccc(F)cc3)n1)OC[C@]2(C)C(N)=O)C(F)(F)F` [Example 428]: the EC50 is more than 200 nM. Turning to `COc1cc(C(=O)NC[C@](O)(c2cc3c(c(-c4ccc(F)cc4)n2)OCC3(C(N)=O)C(F)F)C(F)(F)F)cc2c1=NC(C1CC1)N=2` (stereo partly shown) [Example 253], the EC50 is less than 200 nM. Same read-out and setting: to `Cc1cnc2c(NC(=O)NC34CC(O)(C3)C4)cc(C(=O)NC[C@](O)(c3cc4c(c(-c5ccc(F)cc5)n3)OC[C@]4(C)C(N)=O)C(F)(F)F)cc2c1` [Example 227] belongs less than 200 nM; to `Cc1ccn2ncc(C(=O)NC[C@](O)(c3cc4c(c(-c5ccc(F)cc5)n3)OC[C@]4(C)C(N)=O)C(F)(F)F)c2n1` [Example 358], more than 200 nM; to `COc1cc(C(=O)NC[C@](O)(c2cc3c(c(-c4ccc(F)cc4)n2)OC[C@]3(C)C(N)=O)C(F)(F)F)cc2cc3c(nc12)CCC3` [Example 71], less than 200 nM. As to `COc1cc(C(=O)NC[C@](O)(c2cc3c(c(-c4ccc(F)cc4)n2)OCC3(C(N)=O)C(F)F)C(F)(F)F)cc2cc(C(F)(F)F)cnc12` (stereo partly shown) [Example 257], the EC50 was less than 200 nM.

Consider `COc1cccc(-c2cc(C(=O)NC[C@](O)(c3cc4c(c(-c5ccc(F)cc5)n3)OC[C@]4(C)C(N)=O)C(F)(F)F)n[nH]2)c1` [Example 208], for which the EC50 is more than 200 nM. Regarding `C[C@]1(C(N)=O)COc2c1cc([C@@](O)(CNC(=O)c1cncs1)C(F)(F)F)nc2-c1ccc(F)cc1` [Example 389], the EC50 is more than 200 nM. Consider `C[C@]1(C(N)=O)COc2c1cc([C@@](O)(CNC(=O)c1cnc3nccn3c1)C(F)(F)F)nc2-c1ccc(F)cc1` [Example 374], for which the EC50 was more than 200 nM. As to `CC[C@]1(C(N)=O)COc2c1cc([C@@](O)(CNC(=O)c1cc(OC)c3nc(C4CC4)cn3c1)C(F)(F)F)nc2-c1ccc(F)cc1` [Example 236], the EC50 is less than 200 nM. Turning to `C[C@]1(C(N)=O)COc2c1cc([C@@](O)(CNC(=O)c1cc(Cl)c3cnn(C4CC4)c3c1)C(F)(F)F)nc2-c1ccc(F)cc1` [Example 145], the EC50 is more than 200 nM.

The subject of a further assay is HMPV clinical isolate TN/1501/A1. Nature of the assay: HMPV antiviral assay Method-B (clinical isolate TN/1501/A1 in LLC-MK2 cells, ATP-Lite readout). In kind it is cell-based, Human metapneumovirus (HMPV). To be noted: human metapneumovirus, LLC-MK2, 144 h, hMPV WT1501 (clinical isolate TN/1501/A1), 6 days. As to the method: In vitro HMPV antiviral activity was evaluated using the clinical isolate TN/1501/A1 and LLC-MK2 cells (ATCC #CCL-7), an immortalized kidney epithelial cell line from Macaca mulatta. Compounds were resuspended in dimethyl sulfoxide (DMSO) at 10 mM and added to a 384-well source plate. The compounds were diluted and transferred onto 384-well assay plates using the Echo-650 automated liquid handling system (Beckman Coulter, Indiana). The test compounds were assessed in duplicate at a top concentration of 10 μM followed by 3-fold serial dilutions to give a total of 10 concentration points. DMSO control wells were also included on the assay plates and were either infected or not, acting as positive and negative controls. TN/1501/A1 virus infections were performed in-suspension with LLC-MK2 cells. The cells were washed twice with PBS and removed from the cell-culture flask with 0.25% trypsin-EDTA (Thermo Fisher Scientific, MA). The trypsin-EDTA was inactivated by resuspending in 2% fetal bovine serum (FBS) and OptiMEM (ThermoFisher Scientific, MA) containing 1% penicillin-streptomycin. Cells were pelleted by centrifuging for 5 minutes at 800 rpm, the supernatant was removed, and cells were suspended in PBS plus 100 μg/mL CaCl2). This step was performed twice. Cells were then resuspended in serum-free (SF)-OptiMEM containing 4 μg/mL TPCK-Trypsin (Sigma Aldrich, MO), 1% penicillin-streptomycin (ThermoFisher Scientific, MA) and 100 μg/mL CaCl2). Cells were counted and seeded at a density of 5,000 cells/well, 12.5 μL/well. Virus infections were done at a multiplicity of infection (MOI) of 0.014 with 12.5 μL added per well. SF-OptiMEM, 12.5 μL/well, was added to the appropriate wells to serve as a virus-free negative control for the assay. The final concentration of TPCK-trypsin was 2 μg/mL. Plates were incubated at 37° C., 5% CO2 for 6 days. After 6 days incubation, 12.5 μL of ATP-Lite (PerkinElmer, MA) was added to each well and the raw luminescence values were determined using the Envision 2104 (Perkin Elmer, MA). The average of the raw luminescence values for the cells and virus only positive control wells was subtracted from all conditions tested and the percent cell health was determined by dividing these values by the average of the cells only negative control wells. EC50 values were then calculated by non-linear regression using a four-parameter curve logistic equation. The curve fit model employed was XLFit Dose Response One Site Model 200: y=(A+(B/(1+((x/C)^D)))), where A is the minimum y value, B is the maximum y value, C is the log EC50 value, and D is the slope factor. […] EC50 ranges are as follows: A<0.5 μM; B>0.5 μM.
Molecule `COc1cc(C(=O)NC[C@](O)(c2cc3c(c(-c4cc(Br)c(F)cc4F)n2)OC[C@]3(C)C(N)=O)C(F)(F)F)cc2cn(C3CC3)nc12` [Example 958] had an EC50 of less than 500 nM. `C[C@@]1(C(N)=O)COc2c(-c3ccc4c(c3)OC(F)(F)O4)nc([C@@](O)(CNC(=O)c3cc(Cl)c4nn(C5CC5)cc4c3)C3CC3)c(F)c21` [Example 864]: the EC50 was more than 500 nM.

Consider `COc1cc(C(=O)NC[C@](O)(c2cc3c(c(-c4c(F)ccc(Cl)c4F)n2)OC[C@]3(C)C(N)=O)C(F)(F)F)cc2cn(C3CC3)nc12` [Example 963], for which the EC50 was less than 500 nM. On the same count and under the same terms, to `COc1cc(C(=O)NC[C@](O)(c2cc3c(c(-c4cc(Cl)c(F)c(Cl)c4)n2)OC[C@]3(C)C(N)=O)C2CC2)cc2cn(C(F)F)nc12` [Example 677] belongs more than 500 nM; to `COc1cc(C(=O)NC[C@@](O)(c2cc3c(c(-c4cccc(Br)c4F)n2)OC[C@]3(C)C(N)=O)C(F)(F)F)cc2cn(C3CC3)nc12` [Example 959], more than 500 nM. The same measure, in the same setting: then `COc1cc(C(=O)NC[C@](O)(c2cc3c(c(-c4ccc(F)c(Br)c4F)n2)OC[C@]3(C)C(N)=O)C2CC2)cc2cc(Br)cnc12` [Example 803], with less than 500 nM; and `COc1cc(C(=O)NC[C@](O)(c2cc3c(c(-c4cc(Cl)c(F)c(Cl)c4)n2)OC[C@]3(C)C(N)=O)C2CC2)cc2cn(C3(F)CC3)nc12` [Example 678], with less than 500 nM. Regarding `COc1cc(C(=O)NC[C@](O)(c2nc(-c3ccc4c(c3)OC(F)(F)O4)c3c(c2F)[C@](C)(C(N)=O)CO3)C2CC2)cc2cc(Br)cnc12` [Example 870], the EC50 is more than 500 nM. The same measure, in the same setting: then `COc1cc(C(=O)NC[C@](O)(c2cc3c(c(-c4csc5c(F)cccc45)n2)OC[C@]3(C)C(N)=O)C2(F)CC2)cc2cn(C(F)F)nc12` [Example 630], with less than 500 nM; and `COc1cc(C(=O)NC[C@](O)(c2cc3c(c(-c4csc5c(F)cccc45)n2)OC[C@]3(C)C(N)=O)C2(F)CC2)cc2cn(C3(F)CC3)nc12` [Example 629], with less than 500 nM. Consider `C[C@]1(C(N)=O)COc2c1cc([C@@](O)(CNC(=O)c1ccc3nn(C4CC4)cc3c1)C1CC1)nc2-c1cc(Cl)c(F)cc1F` [Example 690], for which the EC50 was less than 500 nM. In turn, `C[C@]1(C(N)=O)COc2c1cc([C@@](O)(CNC(=O)c1cc(Cl)c3nn(C4CC4)cc3c1)C1(F)CC1)nc2-c1csc2c(F)cccc12` [Example 631] returned an EC50 of less than 500 nM. Turning to `COc1cc(C(=O)NC[C@](O)(c2cc3c(c(-c4cccc(Br)c4F)n2)OC[C@]3(C)C(N)=O)C(F)(F)F)cc2cn(C3CC3)nc12` [Example 960], the EC50 is less than 500 nM. Same read-out and setting: then `COc1cc(C(=O)NC[C@](O)(c2nc(-c3ccc4c(c3)OC(F)(F)O4)c3c(c2F)[C@](C)(C(N)=O)CO3)C2CC2)cc2cn(C3(F)CC3)nc12` [Example 865], with more than 500 nM. Still for that read-out and setting: to `COc1cc(C(=O)NC[C@](O)(c2nc(-c3ccc4c(c3)OC(F)(F)O4)c3c(c2F)[C@](C)(C(N)=O)CO3)C2CC2)cc2cn(C3CC3)nc12` [Example 863] belongs more than 500 nM; to `COc1cc(F)c(-c2nc([C@@](O)(CNC(=O)c3cc(OC)c4nn(C5CC5)cc4c3)C(F)(F)F)cc3c2OC[C@]3(C)C(N)=O)c(F)c1` [Example 962], less than 500 nM. The same measure, in the same setting: then `COc1cc(C(=O)NC[C@](O)(c2nc(-c3ccc4c(c3)OC(F)(F)O4)c3c(c2F)[C@@](C)(C(N)=O)CO3)C2CC2)cc2cc(Br)cnc12` [Example 869], with less than 500 nM; and `COc1cc(C(=O)NC[C@](O)(c2cc3c(c(-c4c(F)ccc(F)c4F)n2)OC[C@]3(C)C(N)=O)C(F)(F)F)cc2cn(C3CC3)nc12` [Example 964], with less than 500 nM; and `COc1cc(C(=O)NC[C@](O)(c2cc3c(c(-c4ccc(F)cc4)n2)OC[C@]3(C)C(N)=O)C2CC2)cc2cc(Br)c(C)nc12` [Example 771], with less than 500 nM.

Consider `COc1cc(C(=O)NC[C@](O)(c2nc(-c3ccc4c(c3)OC(F)(F)O4)c3c(c2F)[C@](C)(C(N)=O)CO3)C2CC2)cc2cn(C(F)F)nc12` [Example 866], for which the EC50 was more than 500 nM.
